Measurements: patent US6872738B1, “Product comprising at least a no synthase inhibiting substance associated with at least a phospholipase a2 inhibiting substance” (Societe de Conseils de Recherches et D'Applications …, priority 1999, dated 2005)
“And” between values parts separate entries of the source, which are not always exact repeats. Identical values can stand only once.

Tests used:
Test in all cases: carrageenan-induced rat's paw edema
Format in all cases: in vivo, Male Sprague Dawley rats
[1] = system: carrageenan-induced rat's paw edema; conditions: for % inflammation: 30 minutes before 1% carrageenan, paw volume 3 hours after injection, 8 rats; for protection of the animal from the edema caused by carrageenan (in words): ip, doses of the groups of the respective example
Description: (§1) The activity of the compounds of the invention was evaluated in vivo on a model of carrageenan-induced rat's paw edema.
(§2) Male Sprague Dawley rats (Charles River) weighing 170 to 180 g on the day of the experiment are kept indoors for 5 to 8 days under animal husbandry conditions and are starved for 18 hours on a mesh floor before and during the experiment. The groups are constituted by 8 animals. The products are administered by intraperitoneal route (ip, 2 ml/kg), 30 minutes before the 1% Carrageenan is injected into the sole of the rats' rear right paw. The volume of the paw corresponding to the edema is measured using a water plethysmometer (Ugo Basile, APELEX) before the injection of carrageenan (t0) and 3 hours after the injection. The volume of the paw allows determination of the % of inflammation ((volume of the paw at time t after carrageenan−volume of the same paw at time to before injection of the products/volume of the paw at time t0)×100). […] This effectiveness is determined statistically by a Student test.

[2] = system: carrageenan-induced rat's paw edema; parameters: key: IS: insignificant result; ***: highly significant result
Description: as §1, §2

[3] = system: carrageenan-induced rat's paw edema; parameters: key: IS: Insignificant result; *: significant result; conditions: Example 4; 30 mg/kg ip
Description: as §1, §2

Structure (SMILES) | % inflammation ([1]; 30 mg/kg ip) | protection of the animal from the edema caused by carrageenan (in words) [1] | significance of % inflammation (Student test) [3] | other results
CCN(CC)CCCC(C)Nc1c2ccc(Cl)cc2nc2ccc(OC)cc12 (stereo not drawn) [mepacrine] | 64.5 ± 3.7% and 53.9 ± 3.2% and 51.9 ± 2.7% | inactive | IS | significance of % inflammation (Student test) ([2]; Example 1, 30 mg/kg ip): IS; significance of % inflammation (Student test) ([2]; Example 2, 30 mg/kg ip): IS
COc1cccc2c1cc([N+](=O)[O-])c1c(C(=O)O)cc3c(c12)OCO3 [aristolochic acid] | 68 ± 5.1% | inactive |  | significance of % inflammation (Student test) ([2]; Example 3, 30 mg/kg ip): IS
CN(Cc1nc(-c2cc(C(C)(C)C)c(O)c(C(C)(C)C)c2)cs1)c1ccc(NC(=N)c2cccs2)cc1.Cl [4-[3,5-bis(1,1-dimethylethyl)-4-hydroxyphenyl]-N-{4-[(imino(2-thienyl)methyl)amino]phenyl}-N-methyl-2-thiazolemethanamine hydrochloride] | 52.8 ± 4.0% | inactive | IS | 
N=C(N)NN [aminoguanidine] |  | inactive |  | % inflammation ([1]; 400 mg/kg ip): 53.1 ± 3.4% and 60.7 ± 7.5%; significance of % inflammation (Student test) ([2]; Example 2, 400 mg/kg ip): IS; significance of % inflammation (Student test) ([2]; Example 3, 400 mg/kg ip): IS
O=[N+]([O-])c1cccc2cn[nH]c12 [7-nitroindazole] |  | inactive |  | % inflammation ([1]; 25 mg/kg ip): 72.5 ± 16.1%; significance of % inflammation (Student test) ([2]; Example 1, 25 mg/kg ip): IS
